Source: paper PMC7181131, “N-Pyrazinoyl Substituted Amino Acids as Potential Antimycobacterial Agents—the Synthesis and Biological Evaluation of Enantiomers” (Molecules, 2020)
In brackets after ≈: the same amount, converted by molar mass. Read-outs that look alike come from different tables or passages of the source.

How the values were obtained:
[1] = system: Aspergillus flavus CCM 8363; assay: Antifungal microdilution broth method, AFla; assay type: cell-based; conditions: CCM8363, read after 48 h (filamentous fungi), read-out: MIC AFla
Experimental: 6. In vitro antifungal activity screening
Antifungal activity evaluation was performed using a microdilution broth method according to EUCAST instructions (The European Committee on Antimicrobial Susceptibility Testing) with slight modifications. Eight fungal strains (four yeast and four mould strains) were used for antifungal […]
and Trichophyton interdigitale CCM 8377 (ATCC 9533). Tested strains were purchased from the Czech Collection of Microorganisms (CCM, Brno, Czech Republic) or from the American Type Collection Cultures (ATCC, Manassas, VA, USA). Tested compounds were dissolved in DMSO and diluted in a twofold manner with RPMI 1640 medium, with glutamine and 2% glucose, buffered to pH 7.0 with MOPS (3-morpholinopropane-1-sulfonic acid). The final concentration of DMSO in the testing […]
Static incubation was performed in the dark and in humid atmosphere, at 35±2 °C, for 24 and 48 h (72 and 120 h for Trichophyton interdigitale respectively). Positive controls consisted of test microbe solely, while negative controls consisted of cultivation medium and DMSO. Visual inspection and metabolic activity indicator, Alamar Blue (ThermoFisher Scientific), were used for MIC endpoint evaluation. The internal quality standards, amphotericin B (Sigma-Aldrich) and voriconazole (Toronto research Chemicals, CA) were involved in assays (for MIC of standards see Table S5). All experiments were conducted in duplicates.
For the results to be valid, the difference in MIC for one compound determined from two parallel measurements must not be greater than one step on the dilution scale.

[2] = system: Mycobacterium aurum DSM 43999 (ATCC 23366); assay: Microplate Alamar Blue Assay (MABA) microdilution, M. aurum; assay type: cell-based
[3] = system: Klebsiella pneumoniae CCM 4415 (ATCC 10031); assay: Antibacterial microdilution broth method, KP; conditions: read after 24 h of incubation
[4] = system: HepG2 cell line; assay: HepG2 cytotoxicity, CellTiter 96 (MTS) assay; assay type: cell-based, human; conditions: Homo sapiens, read-out: HepG2 IC50
[5] = system: Aspergillus fumigatus ATCC 204305; assay: Antifungal microdilution broth method, AF; assay type: cell-based; conditions: ATCC204305, 48 h, read-out: MIC AF
[6] = system: Lichtheimia corymbifera CCM 8077; assay: Antifungal microdilution broth method, LC; assay type: cell-based; conditions: CCM8077, 48 h, read-out: MIC LC
[7] = system: Staphylococcus epidermidis CCM 4418 (ATCC 12228); assay: Antibacterial microdilution broth method, SE; assay type: cell-based; conditions: 24 h, read-out: MIC SE
[8] = system: Candida tropicalis CCM 8264 (ATCC 750); assay: Antifungal microdilution broth method, CT; assay type: cell-based; conditions: 24 h, read-out: MIC CT
[9] = system: M. smegmatis DSM 43465 (ATCC 607); assay: Microplate Alamar Blue Assay (MABA) microdilution, M. smegmatis; assay type: cell-based, Mycobacterium smegmatis
[10] = system: Candida parapsilosis CCM 8260 (ATCC 22019); assay: Antifungal microdilution broth method, CP; assay type: cell-based; conditions: Lodderomyces parapsilosis, 24 h, read-out: MIC CP
[11] = system: Trichophyton interdigitale CCM 8377 (ATCC 9533); assay: Antifungal microdilution broth method, TI; assay type: cell-based; conditions: 48 h, read-out: MIC TI
[12] = system: Mtb H37Ra ITM-M006710 (ATCC 9431); assay: Microplate Alamar Blue Assay (MABA) microdilution, Mtb H37Ra; assay type: cell-based, Mycobacterium tuberculosis; conditions: Mycobacterium tuberculosis
[13] = system: Candida krusei CCM 8271 (ATCC 6258); assay: Antifungal microdilution broth method, CK; assay type: cell-based; conditions: Pichia kudriavzevii, 24 h, read-out: MIC CK
[14] = system: Candida albicans CCM 8320 (ATCC 24433); assay: Antifungal microdilution broth method, CA; assay type: cell-based; conditions: 24 h, read-out: MIC CA
[15] = system: M. avium ssp. avium CNCTC My 80/72 (ATCC 15769); assay: Antimycobacterial pre-screening, microdilution broth, M. avium; assay type: cell-based; conditions: Mycobacterium avium, ATCC15769; Middlebrook 7H9 broth of declared pH 6.6
[16] = system: M. kansasii CNCTC My 235/80 (ATCC 12478); assay: Antimycobacterial pre-screening, microdilution broth, M. kansasii; assay type: cell-based; conditions: Mycobacterium kansasii, ATCC12478; Middlebrook 7H9 broth of declared pH 6.6
[17] = system: Mycobacterium tuberculosis H37Rv CNCTC My 331/88 (ATCC 27294); assay: Antimycobacterial pre-screening, microdilution broth, Mtb H37Rv; assay type: cell-based; conditions: Middlebrook 7H9 broth of declared pH 6.6
[18] = Mycolicibacterium aurum, pH 6, read-out: MIC M. aurum µg/mL
[19] = Mycolicibacterium aurum, pH 6.6, read-out: MIC M. aurum
[20] = Mycolicibacterium smegmatis, pH 6, read-out: MIC M. smegmatis µg/mL
[21] = Mycolicibacterium smegmatis, pH 6.6, read-out: MIC M. smegmatis
[22] = pH 6.6, read-out: MIC Mtb H37Ra
[23] = pH 6, calculated from µg/mL, read-out: MIC Mtb H37Ra

Compound	MIC [1] [µM]	MIC [2, 18] [µg/mL]	MIC [2, 19] [µg/mL]	MIC KP [3] [µM]	MIC [5] [µM]	MIC [6] [µM]	MIC [7] [µM]	MIC [8] [µM]	MIC [9, 20] [µg/mL]	MIC [9, 21] [µg/mL]	MIC [10] [µM]	MIC [11] [µM]	MIC ([12]; pH 6) [µg/mL]	MIC ([12]; pH 6, read-out: MIC Mtb H37Ra) [µg/mL]	MIC [12, 22] [µg/mL]	MIC [12, 23] [µM]	MIC [13] [µM]	MIC [14] [µM]	IC50 ([4]; HepG2, 24 h) [µM]	MIC ([12]; pH 6, read-out: Mtb pH 6 MIC) [µM]	also measured
CCOC(=O)[C@H](Cc1ccc(O)cc1)NC(=O)c1cnccn1 [PC-L-Tyr-Et, ethyl (pyrazine-2-carbonyl)-L-tyrosinate]	> 500	≥ 250	≥ 500	> 500	> 500	> 500	> 500	> 500	≥ 250	≥ 500	> 500	> 500	7.81	7.81	500	24.8	> 500	> 500	–	–	IC50 ([4]; HepG2, 24 h incubation, CellTiter 96): 177 µM; MIC ([12]; pH 6, Table 4, read-out: Mtb pH 6 MIC): 25 µM
NNC(=O)c1ccncc1 [INH, isoniazid, reference compound]	–	–	–	–	–	–	–	–	–	–	–	–	–	0.125 to 0.25	0.125 to 0.25	0.91 to 1.82	–	–	–	–	MIC [15]: 25 µg/mL (≈ 182 µM); MIC [16]: 25 µg/mL (≈ 182 µM); MIC ([2]; Mycolicibacterium aurum, pH 6; read-out: MIC M. aurum): 3.91 to 7.81 µg/mL (≈ 28.5 to 56.9 µM); MIC ([2]; Mycolicibacterium aurum, pH 6.6; read-out: MIC M. aurum): 1.95 to 3.91 µg/mL (≈ 14.2 to 28.5 µM); MIC ([9]; Mycolicibacterium smegmatis, pH 6; read-out: MIC M. smegmatis): 7.81 to 15.6 µg/mL (≈ 56.9 to 114 µM); MIC ([9]; Mycolicibacterium smegmatis, pH 6.6; read-out: MIC M. smegmatis): 7.81 to 15.6 µg/mL (≈ 56.9 to 114 µM); MIC [17]: 0.39 µg/mL (≈ 2.84 µM)
COC(=O)[C@@H](NC(=O)c1cnccn1)[C@@H](C)OC(C)(C)C [PC-L-OtBu-Thr-Me, methyl O-(tert-butyl)-N-(pyrazine-2-carbonyl)-L-threoninate]	> 500	≥ 500	≥ 500	> 500	> 500	> 500	62.5 (≈ 18.5 µg/mL)	> 500	≥ 500	≥ 500	> 500	> 500	≥ 500	≥ 500	≥ 500	≥ 1690	> 500	> 500	> 500	1690	–
COC(=O)C(NC(=O)c1cnccn1)c1ccccc1 [PC-D/L-Pgl-Me, methyl 2-phenyL-2-(pyrazine-2-carboxamido)acetate]	> 500	31.2 (≈ 115 µM)	≥ 500	> 500	> 500	> 500	> 500	500 (≈ 136 µg/mL)	≥ 250	≥ 500	> 500	> 500	< 1.95	< 1.95	≥ 500	< 7.3	> 500	> 500	> 1000	< 7	–
COC(=O)[C@H](CCSC)NC(=O)c1cnccn1 [PC-L-Met-Me, methyl (pyrazine-2-carbonyl)-L-methioninate]	> 500	62.5 (≈ 232 µM)	≥ 500	> 500	> 500	> 500	> 500	> 500	≥ 500	≥ 500	> 500	500 (≈ 135 µg/mL)	< 3.91	< 3.91	≥ 500	< 14.5	> 500	> 500	> 100	15	–
